In brackets after ≈: the same amount, converted by molar mass.
Tests used:
Assay type in all cases: functional
[1] = system: Escherichia coli; experiment: Antibacterial activity against Escherichia coli CMCC 44103 after 24 hrs by agar dilution method; conditions: CMCC 44103, 24 h
[2] = system: Staphylococcus aureus; experiment: Antibacterial activity against Staphylococcus aureus CMCC 26003 after 24 hrs by agar dilution method; conditions: CMCC 26003, 24 h
[3] = system: Pseudomonas aeruginosa; experiment: Antibacterial activity against Pseudomonas aeruginosa CMCC 10104 after 24 hrs by agar dilution method; conditions: CMCC 10104, 24 h

Row | Compound | MIC [1] [µg/mL] | MIC [2] [µg/mL] | MIC [3] [µg/mL]
1 | COc1c(NC(=O)[C@H]2CC[C@H](COc3ccccc3)CC2)c(F)cc2c(=O)c(C(=O)O)cn(C3CC3)c12 | > 32 | > 32 | > 32
2 | COc1c(NC(=O)[C@H]2CC[C@H](COc3cccc(F)c3F)CC2)c(F)cc2c(=O)c(C(=O)O)cn(C3CC3)c12 | > 32 | > 32 | > 32
3 | COc1c(NC(=O)[C@H]2CC[C@H](COc3ccc([N+](=O)[O-])cc3)CC2)c(F)cc2c(=O)c(C(=O)O)cn(C3CC3)c12 | > 32 | > 32 | > 32
4 | COc1c(NC(=O)[C@H]2CC[C@@H](COc3ccccc3)CC2)c(F)cc2c(=O)c(C(=O)O)cn(C3CC3)c12 | > 32 | 4 (≈ 7.87 µM) | > 32
5 | COc1c(NC(=O)[C@H]2CC[C@@H](COc3cccc(F)c3F)CC2)c(F)cc2c(=O)c(C(=O)O)cn(C3CC3)c12 | > 32 | > 32 | > 32
6 | COc1c(NC(=O)[C@H]2CC[C@@H](COc3ccc([N+](=O)[O-])cc3)CC2)c(F)cc2c(=O)c(C(=O)O)cn(C3CC3)c12 | 0.25 (≈ 0.452 µM) | 1 (≈ 1.81 µM) | 2 (≈ 3.61 µM)
7 | CCn1cc(C(=O)O)c(=O)c2cc(F)c(NC(=O)[C@H]3CC[C@H](COc4ccccc4)CC3)c(F)c21 | > 32 | > 32 | > 32
8 | CCn1cc(C(=O)O)c(=O)c2cc(F)c(NC(=O)[C@H]3CC[C@H](COc4cccc(F)c4F)CC3)c(F)c21 | > 32 | > 32 | > 32
9 | CCn1cc(C(=O)O)c(=O)c2cc(F)c(NC(=O)[C@H]3CC[C@H](COc4ccc([N+](=O)[O-])cc4)CC3)c(F)c21 | > 32 | > 32 | > 32
10 | CCn1cc(C(=O)O)c(=O)c2cc(F)c(NC(=O)[C@H]3CC[C@@H](COc4ccccc4)CC3)c(F)c21 | > 32 | > 32 | > 32
11 | CCn1cc(C(=O)O)c(=O)c2cc(F)c(NC(=O)[C@H]3CC[C@@H](COc4cccc(F)c4F)CC3)c(F)c21 | > 32 | > 32 | > 32
12 | CCn1cc(C(=O)O)c(=O)c2cc(F)c(NC(=O)[C@H]3CC[C@@H](COc4ccc([N+](=O)[O-])cc4)CC3)c(F)c21 | > 32 | 4 (≈ 7.55 µM) | > 32
13 | CCn1cc(C(=O)O)c(=O)c2cc(F)c(N3CCNC(C)C3)c(F)c21 (stereo not given) [LOMEFLOXACIN] | 2 (≈ 5.69 µM) | 4 (≈ 11.4 µM) | 8 (≈ 22.8 µM)

The next lines start with the values.

Row | MIC [1] [µg/mL] | MIC [2] [µg/mL] | MIC [3] [µg/mL] | Compound
14 | 16 (≈ 32.4 µM) | > 32 | > 32 | C[C@H]1COc2c(NC(=O)[C@H]3CC[C@H](COc4ccccc4)CC3)c(F)cc3c(=O)c(C(=O)O)cn1c23
15 | > 32 | > 32 | > 32 | Cc1cccc(C)c1OC[C@H]1CC[C@H](C(=O)Nc2c(F)cc3c(=O)c(C(=O)O)cn4c3c2OC[C@@H]4C)CC1
16 | > 32 | 32 (≈ 60.3 µM) | > 32 | C[C@H]1COc2c(NC(=O)[C@H]3CC[C@H](COc4cccc(F)c4F)CC3)c(F)cc3c(=O)c(C(=O)O)cn1c23
17 | > 32 | > 32 | > 32 | C[C@H]1COc2c(NC(=O)[C@H]3CC[C@H](COc4ccc([N+](=O)[O-])cc4)CC3)c(F)cc3c(=O)c(C(=O)O)cn1c23
18 | 8 (≈ 16.2 µM) | > 32 | > 32 | C[C@H]1COc2c(NC(=O)[C@H]3CC[C@@H](COc4ccccc4)CC3)c(F)cc3c(=O)c(C(=O)O)cn1c23
19 | > 32 | > 32 | > 32 | Cc1cccc(C)c1OC[C@H]1CC[C@@H](C(=O)Nc2c(F)cc3c(=O)c(C(=O)O)cn4c3c2OC[C@@H]4C)CC1
20 | > 32 | 2 (≈ 3.77 µM) | 1 (≈ 1.89 µM) | C[C@H]1COc2c(NC(=O)[C@H]3CC[C@@H](COc4cccc(F)c4F)CC3)c(F)cc3c(=O)c(C(=O)O)cn1c23
21 | > 32 | > 32 | > 32 | C[C@H]1COc2c(NC(=O)[C@H]3CC[C@@H](COc4ccc([N+](=O)[O-])cc4)CC3)c(F)cc3c(=O)c(C(=O)O)cn1c23
22 | > 32 | > 32 | > 32 | COc1c(NC(=O)[C@H]2CC[C@H](COc3c(C)cccc3C)CC2)c(F)cc2c(=O)c(C(=O)O)cn(C3CC3)c12
23 | > 32 | > 32 | > 32 | COc1c(NC(=O)[C@H]2CC[C@@H](COc3c(C)cccc3C)CC2)c(F)cc2c(=O)c(C(=O)O)cn(C3CC3)c12
24 | > 32 | > 32 | > 32 | CCn1cc(C(=O)O)c(=O)c2cc(F)c(NC(=O)[C@H]3CC[C@@H](COc4c(C)cccc4C)CC3)c(F)c21
25 | > 32 | > 32 | > 32 | CCn1cc(C(=O)O)c(=O)c2cc(F)c(NC(=O)[C@H]3CC[C@H](COc4c(C)cccc4C)CC3)c(F)c21

Source: ChEMBL document CHEMBL2203195, “Synthesis and antibacterial activity of new fluoroquinolones containing a cis- or trans-cyclohexane moiety” (2012)
